From patent US12365705B2, “Epitope tags recognized by specific binders” (NANOTAG BIOTECHNOLOGIES GmbH, priority 2018, dated 2025)

Assays:
[1] = property of tag; cited from earlier work
[2] = system: NbALFA^ST (SEQ ID NO: 133); experiment: Off-rate assay: peptide elution of ALFA-tagged shGFP2 fusions from ALFA Selector^ST resin; type: binding, Alpaca
Protocol: After washing 4 times with PBS, the beads were suspended in a 10-fold excess of PBS containing 200 μM ALFA^ST peptide (Ac-[sequence]-Amide, SEQ ID NO: 179) and gently mixed at room temperature. At indicated time points, specific elution from the beads was quantified using the GFP fluorescence released into the supernatant. Shown are mean fluorescence values from three independent experiments performed in parallel and standard deviations for each time point. […] C, 10 μl of ALFA Selector^ST resin saturated with either ALFA^ST-shGFP2 (top row) or ALFA^PE-shGFP2 (bottom row) were transferred into 8-well PCR strips. After removing remaining liquid, the beads were incubated with 10 μl of the indicated substances for 60 min at room temperature. Photos were taken after sedimentation of the beads.
20 μl ALFA Selector^ST or ALFA Selector^PE (NanoTag Biotechnologies) was saturated with the respective recombinant target protein. After washing 4× with PBS, the beads were suspended in a 10-fold excess of PBS containing 200 μM free ALFA^ST peptide and mixed at 25° C. Control reactions were carried out without peptide. At indicated time points, specific elution from the beads was quantified using the GFP fluorescence released into the supernatant (Q-Bit 3.0; Thermo-Fischer Scientific). Three independent experiments were performed in parallel. Mean values, standard deviations and exponential fits were calculated using GraphPad Prism 5.0. Photographic pictures were taken upon UV illumination using a Nikon D700 equipped with a 105 mm macro lens (Nikon).

[3] = system: NbALFA^PE (SEQ ID NO: 134); experiment: Off-rate assay: peptide elution of ALFA^ST-tagged shGFP2 from ALFA Selector^PE resin; type: binding, Alpaca; settings: for t1/2: peptide elution from ALFA Selector^PE
Protocol: FIG. 8: Interaction of ALFA^ST-tagged proteins with ALFA Selector^ST and ALFA Selector^PE resins. • A; Sketch of ALFA Selector resins bound to shGFP2-ALFA^ST. In this sketch, the ALFA Selector resin could be ALFA Selector^ST or ALFA Selector^PE. • B and C; Peptide elution from NbALFA-coupled affinity resins. […] To estimate off-rates, the resins were suspended PBS containing an excess of free ALFA^ST peptide and incubated at 25° C. Control reactions were carried out without peptide. At indicated time points, shGFP2 released from the resin was quantified. […] Lines represent fits to a single exponential. Efficient peptide elution of shGFP2-ALFA^ST from ALFA Selector^E was observed already after 15-20 min at room temperature. […] A photo was taken upon UV illumination after 3 h of elution (C). • D; Resistance towards stringent washing steps. ALFA Selector variants described in B were charged with either ALFA^ST-shGFP2 or shGFP2-ALFA^ST and incubated with a 10-fold volume of the indicated substances for 1 h at 25° C. with shaking. Without further washing steps, photos were taken upon UV illumination after sedimentation of the beads. • E; Resistance towards non-physiological pH. Similar to D. Here, however, the resin was washed to remove non-bound material after incubating at indicated pH for 30 min. Photos were taken after re-equilibration in PBS to allow for recovery of the GFP fluorescence.
After washing with PBS, the beads were suspended in a 10-fold excess of PBS containing 200 μM free ALFA^ST peptide and gently mixed at 25° C. Control reactions were carried out without peptide. At indicated time points, specific elution from the beads was quantified using the GFP fluorescence released into the supernatant. Shown are mean fluorescence readings of three experiments as well as standard deviations for each time point. Lines represent fits to a single exponential. Half times are given for peptide elution from ALFA Selector^PE only. […] FIG. 10A recapitulates data shown in FIG. 8B and is repeated here to allow for a direct comparison. Left panels: Sketch illustrating the experimental setup. The ALFA Selector resin could be ALFA Selector^ST or ALFA Selector^PE; middle panels: Experiments performed with ALFA Selector^ST; right panel: Experiments performed with ALFA Selector^PE.
Next, we site-specifically immobilized NbALFA^ST on an agarose-based resin with ultra-low background via a hydrophilic and flexible linker. Binding to the nanobody-coupled resin was analyzed using an ALFA^ST-tagged GFP variant (shGFP2; Frey, S. et al. Surface Properties Determining Passage Rates of Proteins through Nuclear Pores. Cell 174, 202-217.e9 (2018); FIG. 8A, B). As expected, shGFP2-ALFA^ST efficiently and tightly bound to the resulting resin. […]

[4] = system: ALFA^ST-tagged target proteins (ALFA^ST-Vimentin or Tom70-EGFP-ALFA^ST); experiment: Intrabody-based detection in co-transfected COS-7 cells; type: cell-based; settings: co-expression in cytoplasm
Description: Grey boxes indicate CDRs 1-3 (AbM definition, SEQ ID NOs: 115-117). • C: COS-7 cells transfected with Tom70-EGFP-ALFA^ST (upper row) or Tom70-EGFP-ALFA^PE (lower row) were fixed with 4% paraformaldehyde. […] First column: FluoTag-X2 anti-ALFA; second column: target detection using the intrinsic EGFP fluorescence; third column: overlay incl. […] Right column: Sketch of ALFA-tagged vimentins detected by fluorescently labeled NbALFA^ST. • E: Intrabody-based detection of ALFA^ST-tagged proteins. COS-7 cells were co-transfected with an NbALFA^ST-mScarlet-I fusion and ALFA^ST_tagged target proteins. Target proteins were detected via EGFP fluorescence (for TOM70-EGFP-ALFA^ST) or immunofluorescence using FluoTag anti-ALFA AbberiorStar635P (for ALFA^ST-FLAG-Vimentin). In parallel, NbALFA^ST-mScarlet-I was detected by the red mScarlet-I fluorescence. Note the excellent co-localization between the target protein (left column) and the mScarlet-I signal (middle column).
We next wanted to know if our NbALFA^ST can also be used as an intrabody. […]

Chain of NbALFA^PE (SEQ ID NO: 134) (as listed by the source): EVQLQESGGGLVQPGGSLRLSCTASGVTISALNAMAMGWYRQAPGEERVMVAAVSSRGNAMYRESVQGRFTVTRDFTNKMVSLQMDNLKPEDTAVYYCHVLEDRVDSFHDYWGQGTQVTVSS

Molecule: YPYDVPDYA [HA-tag]
- Water solubility [1]: poor

Molecule: ALFA^ST-shGFP2: GFP variant shGFP2 with N-terminal ALFA^ST tag
- protein remained on the resin ([2]; after 90 minutes competition with 10 column volumes of 200 μM ALFA^ST peptide): > 95%
- t1/2 ([3]; N-terminal ALFA^ST tag): ~0.833 min

Molecule: shGFP2-ALFA^ST: GFP variant shGFP2 with C-terminal ALFA^ST tag
- protein remained on the resin ([2]; after 60 minutes competition with 10 column volumes of 200 μM ALFA^ST peptide): > 95%
- peptide elution from ALFA Selector^ST ([2]; excess of free ALFA^ST peptide (200 μM)): inefficient even after prolonged incubation
- time to efficient release from ALFA Selector^PE ([3]; native conditions, room temperature, competition with free ALFA^ST peptide): 15 to 20 min
- washing time over which target protein remained stably bound to ALFA Selector^PE ([3]; no free peptide): > 1 h
- t1/2 ([3]; C-terminal ALFA^ST tag): ~3 min

B1: NbALFA^ST fused to mScarlet-I: NbALFA^ST fused to red fluorescent protein mScarlet-I, used as intrabody (protein)
chain: MGSGDASDSEVQLQESGGGLVQPGGSLRLSCTASGVTISALNAMAMGWYRQAPGERRVMVAAVSERGNAMYRESVQGRFTVTRDFTNKMVSLQMDNLKPEDTAVYYCHVLEDRVDSFHDYWGQGTQVTVSSEPKTPKPQTSGSTGENVATMVSKGEAVIKEFMRFKVHMEGSMNGHEFEIEGEGEGRPYEGTQTAKLKVTKGGPLPFSWDILSPQFMYGSRAFIKHPADIPDYYKQSFPEGFKWERVMNFEDGGAVTVTQDTSLEDGTLIYKVKLRGTNFPPDGPVMQKKTMGWEASTERLYPEDGVLKGDIKMALRLKDGGRYLADFKTTYKAKKPVQMPGAYNVDRKLDITSHNEDYTVVEQYERSEGRHSTGGMDELYK
modifications: fusion protein
notes: NbALFA^ST fused to red fluorescent protein mScarlet-I, used as intrabody
- co-localization of mScarlet-I signal with target protein [4]: robustly co-localized
